Structures are written as SMILES.

In this test the target is T1, c-kit autophosphorylation (Phospho c-Kit Tyr721) in HMC 1.1 (exon 11/13) cells, V654A (Homo sapiens, UniProt P10721, V560G/V654A).
T1 construct: endogenous in cells; host or cells: HMC 1.1 (exon 11/13) cells
T1 sequence (P10721 26-976 V560G/V654A): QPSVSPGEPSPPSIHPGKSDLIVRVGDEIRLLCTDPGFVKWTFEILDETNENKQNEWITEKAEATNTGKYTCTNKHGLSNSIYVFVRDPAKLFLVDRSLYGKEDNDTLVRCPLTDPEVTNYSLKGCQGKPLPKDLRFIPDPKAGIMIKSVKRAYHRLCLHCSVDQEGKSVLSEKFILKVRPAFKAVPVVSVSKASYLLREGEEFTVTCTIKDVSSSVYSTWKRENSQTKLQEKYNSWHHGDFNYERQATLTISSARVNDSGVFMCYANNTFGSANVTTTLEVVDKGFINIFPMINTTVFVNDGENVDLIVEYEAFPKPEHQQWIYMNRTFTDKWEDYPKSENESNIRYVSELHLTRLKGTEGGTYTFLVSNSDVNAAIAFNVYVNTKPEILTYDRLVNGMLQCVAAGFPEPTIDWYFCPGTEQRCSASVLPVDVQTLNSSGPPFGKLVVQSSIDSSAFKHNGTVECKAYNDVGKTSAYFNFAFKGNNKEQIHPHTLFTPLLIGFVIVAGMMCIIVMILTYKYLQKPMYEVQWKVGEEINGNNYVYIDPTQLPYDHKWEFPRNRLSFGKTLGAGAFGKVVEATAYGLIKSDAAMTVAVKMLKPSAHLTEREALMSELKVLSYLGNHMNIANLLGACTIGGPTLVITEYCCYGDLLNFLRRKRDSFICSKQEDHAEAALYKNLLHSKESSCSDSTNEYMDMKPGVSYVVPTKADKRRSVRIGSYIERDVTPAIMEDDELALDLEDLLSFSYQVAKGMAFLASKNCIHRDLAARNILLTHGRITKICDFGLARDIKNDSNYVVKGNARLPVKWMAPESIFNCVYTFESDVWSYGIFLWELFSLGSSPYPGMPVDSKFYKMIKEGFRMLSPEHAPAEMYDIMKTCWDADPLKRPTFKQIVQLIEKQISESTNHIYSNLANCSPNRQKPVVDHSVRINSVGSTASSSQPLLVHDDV
As to the kind of experiment: pKIT Meso Scale Discovery (MSD) assay, inhibition of autophosphorylation of KIT, HMC1.1_V654A. Type of test: cell-based. The following applies: Table 1, cell line not named for Table 1, b1056 names pKIT HMC1.1_V654A, read-out: Code (IC50 for inhibition of autophosphorylation of KIT, pKIT MSD assay). The method, boiled down:
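HMC1.1 cells were serum-starved for 4 h in serum-free, iron-free, phenol red-free IMDM, then treated with compound in dose-response for 90 min at 37 °C. Staurosporine and DMSO served as controls. Lysates were analysed by MSD electrochemiluminescence immunoassay for phospho-c-Kit Tyr721, and % inhibition of autophosphorylation was derived.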
Regarding `CN(C)CCn1cc(-c2cnc(Nc3cc(N)nc(C(F)F)n3)cc2OC(F)F)cn1` [Compound 179, N4-(4-(difluoromethoxy)-5-(1-(2-(dimethylamino)ethyl)-1H-pyrazol-4-yl)pyridin-2-yl)-2-(difluoromethyl)pyrimidine-4,6-diamine], the IC50 is below 10 nM.
Consider `CCNC(=O)c1cnc(Nc2cc(N)nc(C(F)F)n2)cc1NC1CC1` [Compound 38, 6-((6-amino-2-(difluoromethyl)pyrimidin-4-yl)amino)-4-(cyclopropylamino)-N-ethylnicotinamide], for which the IC50 was below 10 nM.
For `CNC(=O)c1cnc(Nc2cc(N)nc(CF)n2)cc1N[C@H](C)C(F)F` [Compound 47, (R)-6-((6-amino-2-(fluoromethyl)pyrimidin-4-yl)amino)-4-((1,1-difluoropropan-2-yl)amino)-N-methylnicotinamide], the IC50 is below 10 nM.
As for `CN[C@H](C)Cn1cc(-c2cnc(Nc3cc(N)nc(C(F)F)n3)cc2OC)cn1` (single isomer, unassigned) [Compound 118, (R)-2-(difluoromethyl)-N4-(4-methoxy-5-(1-(2-(methylamino)propyl)-1H-pyrazol-4-yl)pyridin-2-yl)pyrimidine-4,6-diamine or (S)-2-(difluoromethyl)-N4-(4-methoxy-5-(1-(2-(methylamino)propyl)-1H-pyrazol-4-yl)pyridin-2-yl)pyrimidine-4,6-diamine], the figure is 10 to 40 nM; as for `Cn1cc(-c2cnc(Nc3cc(N)nc(C(F)F)n3)cc2OCCCO)cn1` [Compound 83, 3-((2-((6-amino-2-(difluoromethyl)pyrimidin-4-yl)amino)-5-(1-methyl-1H-pyrazol-4-yl)pyridin-4-yl)oxy)propan-1-ol], 10 to 40 nM.
In the case of `CNC(=O)c1cnc(Nc2cc(N)nc(C(F)F)n2)cc1NCCC(C)C` [Compound 66, 6-((6-amino-2-(difluoromethyl)pyrimidin-4-yl)amino)-4-(isopentylamino)-N-methylnicotinamide], the IC50 was 10 to 40 nM.
For the compound `CNC(=O)c1cnc(Nc2cc(N)nc(C(F)F)n2)cc1NC1(C)CCOC1` (centres unmarked) [Compound 89, 6-((6-amino-2-(difluoromethyl)pyrimidin-4-yl)amino)-N-methyl-4-((3-methyltetrahydrofuran-3-yl)amino)nicotinamide], the IC50 was below 10 nM.
As for `CNC(=O)c1cnc(Nc2cc(N)nc(C(F)F)n2)cc1N[C@@H](C)C(F)F` [Compound 74, (S)-6-((6-amino-2-(difluoromethyl)pyrimidin-4-yl)amino)-4-((1,1-difluoropropan-2-yl)amino)-N-methylnicotinamide], the figure is below 10 nM; as for `CNC(=O)c1cnc(Nc2cc(N)nc(C(F)F)n2)cc1NC1CC1` [Compound 23, 6-((6-amino-2-(difluoromethyl)pyrimidin-4-yl)amino)-4-(cyclopropylamino)-N-methylnicotinamide], below 10 nM; as for `CNC(=O)c1cnc(Nc2cc(N)nc(C(F)F)n2)cc1NC1COC1` [Compound 42, 6-((6-amino-2-(difluoromethyl)pyrimidin-4-yl)amino)-N-methyl-4-(oxetan-3-ylamino)nicotinamide], 10 to 40 nM.
On to `CNc1cc(Nc2cc(N)nc(C(F)F)n2)ncc1-c1cn(C)nn1` [Compound 17, 2-(difluoromethyl)-N4-(5-(1-methyl-1H-1,2,3-triazol-4-yl)-4-(methylamino)pyridin-2-yl)pyrimidine-4,6-diamine], for which the IC50 was 10 to 40 nM.
The figure for `Nc1cc(Nc2cc(OC3CC3)c(-c3cnn([C@H]4CCNC4)c3)cn2)nc(C(F)F)n1` (single isomer, unassigned) [Compound 159, (S)-N4-(4-cyclopropoxy-5-(1-(pyrrolidin-3-yl)-1H-pyrazol-4-yl)pyridin-2-yl)-2-(difluoromethyl)pyrimidine-4,6-diamine or (R)-N4-(4-cyclopropoxy-5-(1-(pyrrolidin-3-yl)-1H-pyrazol-4-yl)pyridin-2-yl)-2-(difluoromethyl)pyrimidine-4,6-diamine] is below 10 nM; for `CCCNC(=O)c1cnc(Nc2cc(N)nc(C(F)F)n2)cc1NC(C)C` [Compound 67, 6-((6-amino-2-(difluoromethyl)pyrimidin-4-yl)amino)-4-(isopropylamino)-N-propylnicotinamide] it is below 10 nM; for `C[C@@H](CF)Nc1cc(Nc2cc(N)nc(C(F)F)n2)ncc1C(=O)NC1CC1` [Compound 90, (S)-6-((6-amino-2-(difluoromethyl)pyrimidin-4-yl)amino)-N-cyclopropyl-4-((1-fluoropropan-2-yl)amino)nicotinamide] it is below 10 nM.
Turning to `COc1cc(Nc2cc(N)nc(C(F)F)n2)ncc1-c1cnn([C@@H]2CCNC2)c1` (single isomer, unassigned) [Compound 100, (R)-2-(difluoromethyl)-N4-(4-methoxy-5-(1-(pyrrolidin-3-yl)-1H-pyrazol-4-yl)pyridin-2-yl)pyrimidine-4,6-diamine or (S)-2-(difluoromethyl)-N4-(4-methoxy-5-(1-(pyrrolidin-3-yl)-1H-pyrazol-4-yl)pyridin-2-yl)pyrimidine-4,6-diamine], the IC50 lay within 10 to 40 nM.
In the case of `CNC(=O)c1cnc(Nc2cc(N)nc(CF)n2)cc1N[C@@H](C)C(F)F` [Compound 46, (S)-6-((6-amino-2-(fluoromethyl)pyrimidin-4-yl)amino)-4-((1,1-difluoropropan-2-yl)amino)-N-methylnicotinamide], the IC50 is below 10 nM.
As to `Nc1cc(Nc2cc(NC3CC3)c(C(=O)N[C@H]3C[C@@H](O)C3)cn2)nc(C(F)F)n1` [Compound 123, 6-((6-amino-2-(difluoromethyl)pyrimidin-4-yl)amino)-4-(cyclopropylamino)-N-((1s,3s)-3-hydroxycyclobutyl)nicotinamide], the IC50 lay in the range of 10 to 40 nM.
Consider `Cn1cc(-c2cnc(Nc3cc(N)nc(C(F)F)n3)cc2OCC2CC(O)C2)cn1` (centres unmarked) [Compound 145, 3-(((2-((6-amino-2-(difluoromethyl)pyrimidin-4-yl)amino)-5-(1-methyl-1H-pyrazol-4-yl)pyridin-4-yl)oxy)methyl)cyclobutan-1-ol], for which the IC50 lay within 10 to 40 nM.
On to `COc1cc(Nc2cc(N)nc(C(F)F)n2)ncc1-c1cnn(CCN2CCC2)c1` [Compound 137, N4-(5-(1-(2-(azetidin-1-yl)ethyl)-1H-pyrazol-4-yl)-4-methoxypyridin-2-yl)-2-(difluoromethyl)pyrimidine-4,6-diamine], for which the IC50 was 10 to 40 nM.
For `CCNC(=O)c1cnc(Nc2cc(N)nc(C(F)F)n2)cc1N[C@@H](C)CF` [Compound 71, (S)-6-((6-amino-2-(difluoromethyl)pyrimidin-4-yl)amino)-N-ethyl-4-((1-fluoropropan-2-yl)amino)nicotinamide], the IC50 is below 10 nM.
As for `N#CCNC(=O)c1cnc(Nc2cc(N)nc(C(F)F)n2)cc1NC1CC1` [Compound 54, 6-((6-amino-2-(difluoromethyl)pyrimidin-4-yl)amino)-N-(cyanomethyl)-4-(cyclopropylamino)nicotinamide], the figure is 10 to 40 nM; as for `CCOc1cc(Nc2cc(N)nc(C(F)F)n2)ncc1-c1cnn(C2CN(C)C2)c1` [Compound 141, 2-(difluoromethyl)-N4-(4-ethoxy-5-(1-(1-methylazetidin-3-yl)-1H-pyrazol-4-yl)pyridin-2-yl)pyrimidine-4,6-diamine], below 10 nM; as for `Cc1noc(-c2cnc(Nc3cc(N)nc(C(F)F)n3)cc2NC(C)C)n1` [Compound 58, 2-(difluoromethyl)-N4-(4-(isopropylamino)-5-(3-methyl-1,2,4-oxadiazol-5-yl)pyridin-2-yl)pyrimidine-4,6-diamine], above 40 nM.
In the case of `COc1cc(Nc2cc(N)nc(C(F)F)n2)ncc1-c1cnn(CC2CCO2)c1` (centres unmarked) [Compound 111, 2-(difluoromethyl)-N4-(4-methoxy-5-(1-(oxetan-2-ylmethyl)-1H-pyrazol-4-yl)pyridin-2-yl)pyrimidine-4,6-diamine], the IC50 was below 10 nM.
As for `COc1cc(Nc2cc(N)nc(C(F)F)n2)ncc1-c1cnn(C2CCN(C)C2)c1` (centres unmarked) [Compound 140, 2-(difluoromethyl)-N4-(4-methoxy-5-(1-(1-methylpyrrolidin-3-yl)-1H-pyrazol-4-yl)pyridin-2-yl)pyrimidine-4,6-diamine], the IC50 was below 10 nM.
As for `CNC(C)(C)Cn1cc(-c2cnc(Nc3cc(N)nc(C(F)F)n3)cc2OC2CC2)cn1` [Compound 184, N4-(4-cyclopropoxy-5-(1-(2-methyl-2-(methylamino)propyl)-1H-pyrazol-4-yl)pyridin-2-yl)-2-(difluoromethyl)pyrimidine-4,6-diamine], the figure is below 10 nM; as for `CC(C)Oc1cc(Nc2cc(N)nc([C@H](C)F)n2)ncc1-c1cnn([C@H]2CCOC2)c1` (single isomer, unassigned) [Compound 157, 2-((S)-1-fluoroethyl)-N4-(4-isopropoxy-5-(1-((S)-tetrahydrofuran-3-yl)-1H-pyrazol-4-yl)pyridin-2-yl)pyrimidine-4,6-diamine or 2-((S)-1-fluoroethyl)-N4-(4-isopropoxy-5-(1-((R)-tetrahydrofuran-3-yl)-1H-pyrazol-4-yl)pyridin-2-yl)pyrimidine-4,6-diamine], below 10 nM; as for `CC(C)(O)Cn1cc(-c2cnc(Nc3cc(N)nc(C(F)F)n3)cc2OC(F)(F)F)cn1` [Compound 198, 1-(4-(6-((6-amino-2-(difluoromethyl)pyrimidin-4-yl)amino)-4-(trifluoromethoxy)pyridin-3-yl)-1H-pyrazol-1-yl)-2-methylpropan-2-ol], below 10 nM.
On to `Cn1cc(-c2cnc(Nc3cc(N)nc(C(F)F)n3)cc2OCC2CCCO2)cn1` (centres unmarked) [Compound 143, 2-(difluoromethyl)-N4-(5-(1-methyl-1H-pyrazol-4-yl)-4-((tetrahydrofuran-2-yl)methoxy)pyridin-2-yl)pyrimidine-4,6-diamine], for which the IC50 was below 10 nM.

For the origin of these results see US20250270190A1, “KIT INHIBITORS” (BLUEPRINT MEDICINES CORPORATION, priority 2022, published 2025).
